Results as given in patent publication US9113629B2, “4-amino-6-(4-substituted-phenyl)-picolinates and 6-amino-2-(4-substituted-phenyl)-pyrimidine-4-carboxylates and their use as herbicides” (DOW AGROSCIENCES LLC, priority 2013, dated 2015).
Read-outs that look alike come from different tables or passages of the source.

What was measured:
[1] = system: Key Broadleaf Weed and Crop Species; assay: Post-emergent Test II herbicidal activity (Table 5); format: in vivo; conditions: post-emergence, 336 h, 14 days after application; for pest or weed control at 70 g/ha: application rate 70 g ai/ha; for pest or weed control at 140 g/ha: application rate 140 g ai/ha
Summary of the method: (§1)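 Scoring: visual, 0–100% injury at 14 d versus untreated. Treatment: overhead track spray, 187 L/ha, onto plants at the first–second true leaf stage. Growth: greenhouse, ~15 h light, 23–29 °C day, 22–28 °C night.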

[2] = system: Key Grass and Sedge Weeds as well as Grass Crops; assay: Post-emergent Test II herbicidal activity (Table 6); format: in vivo; conditions: post-emergence, 336 h; for pest or weed control at 70 g/ha: 70 g ai/ha; for pest or weed control at 140 g/ha: 140 g ai/ha
Summary of the method: as §1

[3] = ABUTH: velvetleaf (Abutilon theophrasti), read-out: Visual Growth Reduction (%) 14 Days After Application, ABUTH
[4] = AMARE: redroot pigweed (Amaranthus retroflexus), read-out: Visual Growth Reduction (%) 14 Days After Application, AMARE
[5] = BRSNN: oilseed-rape, canola (Brassica napus), read-out: Visual Growth Reduction (%) 14 Days After Application, BRSNN
[6] = CHEAL: lambsquarters (Chenopodium album), read-out: Visual Growth Reduction (%) 14 Days After Application, CHEAL
[7] = EPHHL: wild poinsettia (Euphorbia heterophylla), read-out: Visual Growth Reduction (%) 14 Days After Application, EPHHL
[8] = HELAN: sunflower (Helianthus annuus), read-out: Visual Growth Reduction (%) 14 Days After Application, HELAN
[9] = VIOTR: wild pansy (Viola tricolor), read-out: Visual Growth Reduction (%) 14 Days After Application, VIOTR
[10] = CYPES: yellow nutsedge (Cyperus esculentus), read-out: Visual Growth Reduction (%) 14 Days After Application, CYPES
[11] = DIGSA: crabgrass (Digitaria sanguinalis), read-out: Visual Growth Reduction (%) 14 Days After Application, DIGSA
[12] = ECHCG: barnyardgrass (Echinochloa crus-galli), read-out: Visual Growth Reduction (%) 14 Days After Application, ECHCG
[13] = ORYSA: rice (Oryza sativa), crop, read-out: Visual Growth Reduction (%) 14 Days After Application, ORYSA
[14] = SETFA: giant foxtail (Setaria faberi), read-out: Visual Growth Reduction (%) 14 Days After Application, SETFA
[15] = SORVU: grain sorghum (Sorghum vulgare), read-out: Visual Growth Reduction (%) 14 Days After Application, SORVU
[16] = TRZSS (wheat, Triticum aestivum), crop, read-out: Visual Growth Reduction (%) 14 Days After Application, TRZSS
[17] = ZEAMX: maize, corn (Zea mays), crop, read-out: Visual Growth Reduction (%) 14 Days After Application, ZEAMX

Row | SMILES | pest or weed control at 70 g/ha [1, 3] [%] | pest or weed control at 140 g/ha [1, 3] [%] | pest or weed control at 70 g/ha [1, 4] [%] | pest or weed control at 140 g/ha [1, 4] [%] | pest or weed control at 70 g/ha [1, 5] [%] | pest or weed control at 140 g/ha [1, 5] [%] | pest or weed control at 70 g/ha [1, 6] [%] | pest or weed control at 140 g/ha [1, 6] [%] | pest or weed control at 70 g/ha [1, 7] [%] | pest or weed control at 140 g/ha [1, 7] [%] | pest or weed control at 70 g/ha [1, 8] [%] | pest or weed control at 140 g/ha [1, 8] [%] | pest or weed control at 70 g/ha [1, 9] [%] | pest or weed control at 140 g/ha [1, 9] [%] | melting point | pest or weed control at 70 g/ha [2, 10] [%] | pest or weed control at 140 g/ha [2, 10] [%] | pest or weed control at 70 g/ha [2, 11] [%] | pest or weed control at 140 g/ha [2, 11] [%] | pest or weed control at 70 g/ha [2, 12] [%] | also measured
1 | COC(=O)c1nc(-c2ccc(OC(F)F)cc2F)c(F)c(N)c1Cl [Compound 104] | 45 to 59 | 45 to 59 | 0 to 29 | 0 to 29 | 0 to 29 | 0 to 29 | 0 to 29 | 0 to 29 | 75 to 84 | 85 to 94 | 75 to 84 | 75 to 84 | 0 to 29 | 0 to 29 | 127 to 129 °C | 0 to 29 | 45 to 59 | 0 to 29 | 0 to 29 | 0 to 29 | pest or weed control at 140 g/ha [2, 12]: 0 to 29%; pest or weed control at 70 g/ha [2, 13]: 0 to 29%; pest or weed control at 140 g/ha [2, 13]: 0 to 29%; pest or weed control at 70 g/ha [2, 14]: 0 to 29%; pest or weed control at 140 g/ha [2, 14]: 0 to 29%; pest or weed control at 70 g/ha [2, 15]: 0 to 29%; pest or weed control at 140 g/ha [2, 15]: 45 to 59%; pest or weed control at 70 g/ha [2, 16]: 0 to 29%; pest or weed control at 140 g/ha [2, 16]: 0 to 29%; pest or weed control at 70 g/ha [2, 17]: 45 to 59%; pest or weed control at 140 g/ha [2, 17]: 95 to 100%
2 | COc1c(N)nc(-c2ccc(Br)cc2F)nc1C(=O)O [Compound 46] | 95 to 100 | 95 to 100 | 85 to 94 | 95 to 100 | 95 to 100 | 95 to 100 | 95 to 100 | 95 to 100 | 95 to 100 | 95 to 100 | 85 to 94 | 95 to 100 | 45 to 59 | 95 to 100 | 133 to 135 °C | 95 to 100 | 95 to 100 | 45 to 59 | 60 to 74 | 85 to 94 | pest or weed control at 140 g/ha [2, 12]: 85 to 94%; pest or weed control at 70 g/ha [2, 13]: 0 to 29%; pest or weed control at 140 g/ha [2, 13]: 0 to 29%; pest or weed control at 70 g/ha [2, 14]: 75 to 84%; pest or weed control at 140 g/ha [2, 14]: 85 to 94%; pest or weed control at 70 g/ha [2, 15]: 45 to 59%; pest or weed control at 140 g/ha [2, 15]: 60 to 74%; pest or weed control at 70 g/ha [2, 16]: 45 to 59%; pest or weed control at 140 g/ha [2, 16]: 60 to 74%; pest or weed control at 70 g/ha [2, 17]: 45 to 59%; pest or weed control at 140 g/ha [2, 17]: 45 to 59%
3 | C#Cc1ccc(-c2nc(C(=O)O)c(Cl)c(N)c2F)c(F)c1 [Compound 108] | 45 to 59 | 75 to 84 | 75 to 84 | 95 to 100 | 85 to 94 | 85 to 94 | 60 to 74 | 75 to 84 | 85 to 94 | 95 to 100 | 85 to 94 | 95 to 100 | 0 to 29 | 45 to 59 | 165 to 175 °C (dec.) | 45 to 59 | 30 to 44 | 60 to 74 | 60 to 74 | 45 to 59 | pest or weed control at 140 g/ha [2, 12]: 75 to 84%; pest or weed control at 70 g/ha [2, 13]: 0 to 29%; pest or weed control at 140 g/ha [2, 13]: 0 to 29%; pest or weed control at 70 g/ha [2, 14]: 45 to 59%; pest or weed control at 140 g/ha [2, 14]: 30 to 44%; pest or weed control at 70 g/ha [2, 15]: 0 to 29%; pest or weed control at 140 g/ha [2, 15]: 30 to 44%; pest or weed control at 70 g/ha [2, 16]: 30 to 44%; pest or weed control at 140 g/ha [2, 16]: 30 to 44%; pest or weed control at 70 g/ha [2, 17]: 0 to 29%; pest or weed control at 140 g/ha [2, 17]: 45 to 59%
